Patent US20160309708A1, “POLYCARBOXYLIC ACID ESTER ALKYL DERIVED FROM BRANCHED AND STRAIGHT ALCOHOL OF PLANT ORIGIN, AND USE OF AN ALKYL ESTER IN AGROCHEMICAL FORMULATIONS” (priority 2013, published 2016)

Assay: Solubility limit of active ingredients in the alkyl esters of polycarboxylic acids at 25° C.
Type: physicochemical
Details: under agitation, solvent: alkyl esters of polycarboxylic acids

Going from `Cc1c(COC(=O)[C@@H]2[C@H](/C=C(\Cl)C(F)(F)F)C2(C)C)cccc1-c1ccccc1` (racemic) [BIFENTRIN, Bifenthrin] to `CCCC1COC(Cn2cncn2)(c2ccc(Cl)cc2Cl)O1` (centres unmarked) [PROPICONAZOLE, Propiconazole], the “solubility limit in alkyl esters of polycarboxylic acids of this invention” value (shortened to “solubility limit in alkyl esters”) rises from 702 GRAMS PER LITER to 1568 GRAMS PER LITER.

Going from `CC(C)(C)C(O)(CCc1ccc(Cl)cc1)Cn1cncn1` (centres unmarked) [TEBUCONAZOLE, Tebuconazole] to `CCOP(=S)(OCC)Oc1nc(Cl)c(Cl)cc1Cl` [CHLORPYRIFOS, Chlorpyrifos], the “solubility limit in alkyl esters” value rises from 240 GRAMS PER LITER to 900 GRAMS PER LITER.

With Abamectin the “solubility limit in alkyl esters” value was 116 GRAMS PER LITER.
